One block for each compound: values may come before it.
Experiments:
[1] = target: T1, Prostaglandin G/H synthase 2 (Homo sapiens) (UniProt P35354); settings: Sf9; at 10 µM;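 also: in vitro assay on recombinant human COX-2 produced in baculovirus-infected Sf9 insect cells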
T1 sequence (whole entry): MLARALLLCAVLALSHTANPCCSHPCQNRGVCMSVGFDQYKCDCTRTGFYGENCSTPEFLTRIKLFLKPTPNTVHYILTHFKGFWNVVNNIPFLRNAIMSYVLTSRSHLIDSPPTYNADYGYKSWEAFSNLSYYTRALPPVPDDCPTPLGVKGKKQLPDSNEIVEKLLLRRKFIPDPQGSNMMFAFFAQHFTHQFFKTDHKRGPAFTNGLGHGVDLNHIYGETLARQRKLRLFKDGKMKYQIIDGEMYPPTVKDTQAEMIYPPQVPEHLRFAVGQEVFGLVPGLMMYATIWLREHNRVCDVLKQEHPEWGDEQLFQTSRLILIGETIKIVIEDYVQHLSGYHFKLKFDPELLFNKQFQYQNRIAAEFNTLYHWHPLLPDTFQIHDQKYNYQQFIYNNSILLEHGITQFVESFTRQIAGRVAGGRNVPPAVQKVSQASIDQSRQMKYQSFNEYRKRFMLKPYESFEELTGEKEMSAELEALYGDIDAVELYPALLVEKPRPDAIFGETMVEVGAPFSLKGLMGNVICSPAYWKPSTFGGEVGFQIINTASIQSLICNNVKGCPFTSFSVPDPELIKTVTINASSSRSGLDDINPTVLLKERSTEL
Description: In vitro inhibitory activity against human recombinant prostaglandin G/H synthase 2 (COX-2) at 10 uM expressed in sf-9 cells infected with baculovirus

[2] = target: T2, Prostaglandin G/H synthase 1 (Ovis aries) (UniProt P05979); settings: at 10 µM
T2 sequence (whole entry): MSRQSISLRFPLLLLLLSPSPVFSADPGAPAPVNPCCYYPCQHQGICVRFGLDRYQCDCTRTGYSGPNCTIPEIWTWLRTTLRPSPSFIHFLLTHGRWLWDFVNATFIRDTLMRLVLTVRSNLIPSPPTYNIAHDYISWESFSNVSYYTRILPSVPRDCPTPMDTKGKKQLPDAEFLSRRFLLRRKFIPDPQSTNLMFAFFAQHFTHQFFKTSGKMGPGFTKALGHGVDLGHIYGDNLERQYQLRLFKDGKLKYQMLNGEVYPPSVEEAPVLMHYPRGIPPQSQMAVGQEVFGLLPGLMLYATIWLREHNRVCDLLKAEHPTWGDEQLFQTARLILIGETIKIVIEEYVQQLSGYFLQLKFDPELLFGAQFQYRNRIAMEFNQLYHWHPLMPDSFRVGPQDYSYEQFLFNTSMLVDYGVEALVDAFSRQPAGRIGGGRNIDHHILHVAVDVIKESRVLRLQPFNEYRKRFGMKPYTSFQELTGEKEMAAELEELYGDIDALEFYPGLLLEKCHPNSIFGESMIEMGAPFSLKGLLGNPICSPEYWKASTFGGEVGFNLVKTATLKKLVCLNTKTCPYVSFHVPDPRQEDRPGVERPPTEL
Description: In vitro inhibitory activity against prostaglandin G/H synthase 1 (COX-1) from the microsomal fraction of ram seminal vesicles at 10 uM concentration

[3] = target: T3, Prostaglandin G/H synthase 1 (Ovis aries, UniProt P05979); assay: In vitro inhibitory activity against prostaglandin G/H synthase 1 from the microsomal fraction of ram seminal vesicles
T3 sequence (P05979 whole entry): T2 sequence (whole entry)

Structure (SMILES): CCCC(=O)N(c1ccc(-c2cc(C(F)F)nn2-c2ccc(Cl)cc2)cc1)S(C)(=O)=O
- inhibition [1]: 42%
- inhibition [2]: 100%

Structure (SMILES): Cc1ccc(S(=O)(=O)Nc2ccc(-c3cc(C(F)(F)F)nn3-c3ccc(Cl)cc3)cc2)cc1
- inhibition [1]: 70%
- inhibition [2]: 0%

Structure (SMILES): CC(=O)Nc1ccc(-c2cc(C)nn2-c2ccc(Br)cc2)cc1
- IC50 [3]: 13.3 µM
- inhibition [1]: 80%
- inhibition [2]: 9%

Structure (SMILES): CN(C)c1ccc(-n2nc(C(F)(F)F)cc2-c2ccc(NS(C)(=O)=O)cc2)cc1
- IC50 [3]: 3.4 µM
- inhibition [1]: 100%
- inhibition [2]: 85%

Structure (SMILES): CS(=O)(=O)Nc1ccc(-c2cc(C(F)(F)F)nn2-c2ccc(S(N)(=O)=O)cc2CO)cc1
- inhibition [1]: 12%
- inhibition [2]: 42%

Structure (SMILES): CS(=O)(=O)Nc1ccc(-c2cc(C(F)(F)F)nn2-c2ccc([N+](=O)[O-])cn2)cc1
- inhibition [1]: 13%
- inhibition [2]: 0%

Structure (SMILES): CC(=O)Nc1ccc(-c2cc(C(F)(F)F)nn2-c2ccc(S(N)(=O)=O)cc2CO)cc1
- inhibition [1]: 0%
- inhibition [2]: 59%

Structure (SMILES): CCCC(=O)N(c1ccc(-c2cc(C(F)(F)F)nn2-c2ccc(Cl)cc2)cc1)S(C)(=O)=O
- inhibition [1]: 62%
- inhibition [2]: 0%

Structure (SMILES): CS(=O)(=O)Nc1ccc(-c2cc(C(F)(F)F)nn2-c2ccc(N)cc2)cc1
- IC50 [3]: 31.6 µM
- inhibition [1]: 69%
- inhibition [2]: 22%

Structure (SMILES): CC(=O)N(c1ccc(-c2cc(C(F)(F)F)nn2-c2ccc(Cl)cc2)cc1)S(C)(=O)=O
- inhibition [1]: 63%
- inhibition [2]: 0%

Structure (SMILES): CC(=O)Nc1ccc(-c2cc(C(F)(F)F)nn2-c2ccc(Br)cc2)cc1
- IC50 [3]: 3.5 µM
- inhibition [1]: 87%
- inhibition [2]: 100%

Structure (SMILES): CS(=O)(=O)Nc1ccc(-c2cc(C(F)(F)F)nn2-c2ccc(F)c(F)c2)cc1
- inhibition [1]: 59%
- inhibition [2]: 32%

Structure (SMILES): CS(=O)(=O)N(c1ccc(-c2cc(C(F)(F)F)nn2-c2ccc(Cl)cc2)cc1)S(C)(=O)=O
- inhibition [1]: 13%
- inhibition [2]: 14%

Structure (SMILES): Cc1cc(-c2ccc(NS(C)(=O)=O)cc2)n(-c2ccc([N+](=O)[O-])cn2)n1
- inhibition [1]: 13%
- inhibition [2]: 0%

Structure (SMILES): Cc1cc(-c2ccc(NS(C)(=O)=O)cc2)n(-c2ccc([N+](=O)[O-])cc2)n1
- inhibition [1]: 0%
- inhibition [2]: 40%

Structure (SMILES): CCC(=O)N(c1ccc(-c2cc(C(F)F)nn2-c2ccc(Cl)cc2)cc1)S(C)(=O)=O
- inhibition [1]: 36%
- inhibition [2]: 100%

Structure (SMILES): CNc1ccc(-n2nc(C(F)(F)F)cc2-c2ccc(NS(C)(=O)=O)cc2)cc1
- inhibition [1]: 42%
- inhibition [2]: 14%

Structure (SMILES): CS(=O)(=O)Nc1ccc(-c2cc(C(F)(F)F)nn2-c2ccc([N+](=O)[O-])cc2)cc1
- inhibition [1]: 0%
- inhibition [2]: 34%

Structure (SMILES): CCC(=O)N(c1ccc(-c2cc(C(F)(F)F)nn2-c2ccc(Cl)cc2)cc1)S(C)(=O)=O
- inhibition [1]: 65%
- inhibition [2]: 18%

Other lines, results leading:

- inhibition [1]: 89%
- inhibition [2]: 90%
Structure (SMILES): CS(=O)(=O)Nc1ccc(-c2cc(C(F)F)nn2-c2ccccc2F)cc1

- inhibition [1]: 22%
- inhibition [2]: 66%
Structure (SMILES): CS(=O)(=O)Nc1ccc(-c2cc(C(F)F)nn2-c2ccccc2Cl)cc1

- inhibition [1]: 67%
- inhibition [2]: 97%
Structure (SMILES): CS(=O)(=O)Nc1ccc(-c2cc(C(F)F)nn2-c2cccc(F)c2)cc1

- inhibition [1]: 7%
- inhibition [2]: 34%
Structure (SMILES): Cc1cc(-c2ccc(NS(C)(=O)=O)cc2)n(-c2ccccc2)n1

- IC50 [3]: 15.6 µM
- inhibition [1]: 100%
- inhibition [2]: 25%
Structure (SMILES): CS(=O)(=O)Nc1ccc(-c2cc(C(F)(F)F)nn2-c2ccc(Cl)cc2)cc1

- inhibition [1]: 3%
- inhibition [2]: 96%
Structure (SMILES): CS(=O)(=O)Nc1ccc(-c2cc(C(F)(F)F)nn2-c2cccc(Cl)c2)cc1

- inhibition [1]: 62%
- inhibition [2]: 22%
Structure (SMILES): CS(=O)(=O)Nc1ccc(-c2cc(C(F)F)nn2-c2ccc(F)cc2)cc1

- IC50 [3]: 100 µM
- inhibition [1]: 88%
- inhibition [2]: 0%
Structure (SMILES): Cc1cc(-c2ccc(NS(C)(=O)=O)cc2)n(-c2ccc(Cl)cc2)n1

- inhibition [1]: 70%
- inhibition [2]: 49%
Structure (SMILES): CS(=O)(=O)Nc1ccc(-c2cc(C(F)(F)F)nn2-c2cccc(F)c2)cc1

- inhibition [1]: 0%
- inhibition [2]: 100%
Structure (SMILES): CS(=O)(=O)Nc1ccc(-c2cc(C(F)F)nn2-c2ccc(S(N)(=O)=O)cc2CO)cc1

- IC50 [3]: 63 µM
- inhibition [1]: 100%
- inhibition [2]: 0%
Structure (SMILES): CS(=O)(=O)Nc1ccc(-c2cc(C(F)F)nn2-c2ccc(Cl)cc2)cc1

- inhibition [1]: 89%
- inhibition [2]: 97%
Structure (SMILES): CS(=O)(=O)Nc1ccc(-c2cc(C(F)(F)F)nn2-c2ccccc2F)cc1

- inhibition [1]: 36%
- inhibition [2]: 11%
Structure (SMILES): CS(=O)(=O)Nc1ccc(-c2cc(C(F)F)nn2-c2ccc(F)c(F)c2)cc1

- IC50 [3]: 20.3 µM
- inhibition [1]: 65%
- inhibition [2]: 6%
Structure (SMILES): CS(=O)(=O)Nc1ccc(-c2cc(C(F)(F)F)nn2-c2ccc(F)cc2)cc1

- IC50 [3]: 63 µM
- inhibition [1]: 100%
- inhibition [2]: 10%
Structure (SMILES): Cc1cc(-c2ccc(NS(C)(=O)=O)cc2)n(-c2ccc(Br)cc2)n1

- inhibition [1]: 70%
- inhibition [2]: 10%
Structure (SMILES): CS(=O)(=O)Nc1ccc(-c2cc(C(F)(F)F)nn2-c2ccc(Cl)c(Cl)c2)cc1

- inhibition [1]: 25%
- inhibition [2]: 0%
Structure (SMILES): Cc1cc(-c2ccc(NS(C)(=O)=O)cc2)n(-c2ccc(F)cc2)n1

- inhibition [1]: 31%
- inhibition [2]: 22%
Structure (SMILES): CS(=O)(=O)Nc1ccc(-c2cc(C(F)F)nn2-c2ccccc2)cc1

- IC50 [3]: 4.9 µM
- inhibition [1]: 100%
- inhibition [2]: 88%
Structure (SMILES): CS(=O)(=O)Nc1ccc(-c2cc(C(F)(F)F)nn2-c2ccc(Br)cc2)cc1

- inhibition [1]: 17%
- inhibition [2]: 66%
Structure (SMILES): CC(=O)N(c1ccc(-c2cc(C(F)F)nn2-c2ccc(Cl)cc2)cc1)S(C)(=O)=O

- inhibition [1]: 71%
- inhibition [2]: 43%
Structure (SMILES): CS(=O)(=O)Nc1ccc(-c2cc(C(F)F)nn2-c2ccc(Cl)c(Cl)c2)cc1

- IC50 [3]: 85.3 µM
- inhibition [1]: 100%
- inhibition [2]: 0%
Structure (SMILES): CS(=O)(=O)Nc1ccc(-c2cc(C(F)(F)F)nn2-c2ccccc2)cc1

From ChEMBL document CHEMBL1147488, “Methanesulfonamide group at position-4 of the C-5-phenyl ring of 1,5-diarylpyrazole affords a potent class of cyclooxygenase-2 (COX-2) inhibitors” (Bioorg Med Chem Lett, 2004)
